Experimental data: patent US20220233566A1, “NOVEL CARBONATE COMPOUND HAVING PYRROLOPYRIMIDINE SKELETON OR PHARMACEUTICALLY ACCEPTABLE SALT THEREOF” (TAIHO PHARMACEUTICAL CO., LTD., priority 2019, published 2022)

Columns and labels:
[1] = Presence of prodrug in mouse and absorbency (plasma AUC after oral administration); format: in vivo; conditions: male, Balb/cA, mouse, 7.6 umol/kg, mice, 7.6 μmol/kg, administered compound itself in plasma, read-out: AUC0-6hr
Method: The dosage amounts of the compounds of Comparative Examples 1 to 5 and Examples 1 to 26 are those (mole/10 mL/kg) shown in Tables. Solutions for administration were prepared with an 0.5% aqueous solutions of HPMC so as to satisfy the dosage amounts.
Note that, the “amount of mole/10 mL/kg” means as follows: for example “10 mmol/10 mL/kg” means that 10 mmol of a test compound per body-weight (1 kg) of a mouse was dispersed or dissolved in a solution (10 mL) for administration. The same applies hereinafter.
The solutions for administration prepared above were orally administered to mice (Balb/cA, male) not fasted each by use of an oral administration sonde.
The mice were anesthetized with isoflurane 0.5, 1, 2, 4 and 6 hours after administration and blood was taken from the facial vein by use of a specific needle (animal lancet) and a heparin-coated hematocrit tube.
The blood sampled was immediately centrifuged (13000 rpm, 2 minutes, 4° C.) to prepare the plasma samples. After proteins were removed from the plasma samples, the concentrations of the test compound in the plasma samples were measured by LC/MS/MS.
The value of “area under the curve” (AUC) of drug concentration in blood versus time was calculated using analysis software such as Phoenix (registered trademark) WinNonlin (registered trademark).
In Table 3, “Comparative Example 1” and “Comparative Example 2” represent the “compound (Br form) of Comparative Example 1” and the “compound (I form) of Comparative Example 2”, respectively. In Table 4, “Comparative Example 6” represents the “compound (C1 form) of Comparative Example 6”.

A172 = assay: Growth suppression activity in human tumor cell line; format: cell-based; conditions: A 172, 72 h; Human brain tumor, A172, 3 days
Method: (§1) Human tumor cell lines different in type were suspended in mediums, seeded in individual wells of a multi-well plate and cultured. On the day after initiation of culture, serially diluted solutions of a compound were added. Culture was carried out for further 3 days. Cells were counted by a CellTiter-Glo (manufactured by Promega KK) in accordance with the protocol recommended by Promega KK. Cell viability was calculated in accordance with the equation shown below and the concentration (IC50 (μM)) of the compound at which 50% of cell growth is inhibited was obtained.
(§2) T: Intensity of light emitted from a well containing a compound
(§3) C: Intensity of light emitted from a well containing no compound

CCRFCEM = assay: as above; format: cell-based; conditions: CCRF-CEM, 72 h, Human hematopoietic organ tumor, 3 days
Method: as §1, §2, §3

CFPAC1 = assay: as above; format: cell-based; conditions: CFPAC-1, 72 h; Human pancreatic cancer, CFPAC1, 3 days
Method: as §1, §2, §3

DLD1 = assay: as above; format: cell-based; conditions: DLD-1, 72 h; Human colorectal cancer, DLD1, 3 days
Method: as §1, §2, §3

H1703 = assay: as above; format: cell-based; conditions: NCI-H1703, 72 h; Human lung cancer, H1703, 3 days
Method: as §1, §2, §3

H69 = assay: as above; format: cell-based; conditions: NCI-H69, 72 h; Human lung cancer, H69, 3 days
Method: as §1, §2, §3

HCT116 = assay: as above; format: cell-based; conditions: HCT-116, 72 h; Human colorectal cancer, HCT116, 3 days
Method: as §1, §2, §3

HT29 = assay: as above; format: cell-based; conditions: HT-29, 72 h; Human colorectal cancer, HT29, 3 days
Method: as §1, §2, §3

LN229 = assay: as above; format: cell-based; conditions: LN-229, 72 h; Human brain tumor, LN229, 3 days
Method: as §1, §2, §3

MIAPACA2 = assay: as above; format: cell-based; conditions: MIA PaCa-2, 72 h; Human pancreatic cancer, MIAPACA2, 3 days
Method: as §1, §2, §3

MKN45 = assay: as above; format: cell-based; conditions: MKN-45, 72 h; Human stomach cancer, MKN45, 3 days
Method: as §1, §2, §3

MOLT4 = assay: as above; format: cell-based; conditions: MOLT-4, 72 h; Human hematopoietic organ tumor, MOLT4, 3 days
Method: as §1, §2, §3

MV-4-11 = assay: as above; format: cell-based; conditions: MV4-11, 72 h; Human hematopoietic organ tumor, MV-4-11, 3 days
Method: as §1, §2, §3

A427 = assay: Growth suppression activity to human tumor cell line (Evaluation 3); format: cell-based; conditions: A-427, 72 h; Human lung cancer, A427, 3 days
Method: as §1, with “(IC50 (nM))” for “(IC50 (μM))”, “of a” for “of the”
as §2, §3

H520 = assay: as above; format: cell-based; conditions: NCI-H520, 72 h; Human lung cancer, H520, 3 days
Method: as §1, with “(IC50 (nM))” for “(IC50 (μM))”, “of a” for “of the”
as §2, §3

[2] = system: human brain tumor cell line (U-87 MG); assay: Evaluation 1 of antitumor effect and toxicity in mouse (U-87 MG subcutaneous transplant); format: in vivo, BALB/cA Jcl-nu/nu mice; conditions: oral every day; Comparative Example 2 12 mg/kg/day, Example 1 15.4 mg/kg/day
Method: The day of grouping mice was determined Day 0.
IRs of Comparative Example 2-compound administration group and Example 1-compound administration group on the final day of evaluation (Day 6 in Comparative Example 2 and Day 13 in Example 1) are shown in FIG. 1 and BWC versus elapsed days is shown in FIG. 2.

[3] = system: human brain tumor cell line (U-87 MG); assay: Combination use of compound and radiation, cell viability (crystal violet); format: cell-based; conditions: any order (same-day, compound first, radiation first), Student's t-test
Method: A human brain tumor cell line (U-87 MG) was suspended in a medium, seeded in individual wells of a multi-well plate and cultured. In the case where radiation exposure and addition of a compound are simultaneously carried out, both treatments were carried out on two days after initiation of culture. In the case where addition of a compound preceded radiation exposure, a serially diluted solution of a compound was added on the day after initiation of culture and radiation exposure was carried out on two days after initiation of culture. In the case where radiation exposure preceded addition of a compound, radiation exposure was carried out on the day after initiation of culture and a serially diluted solution of a compound was added on the two days after initiation of culture. Day 5 after seeding, cells were fixed with a 25% aqueous solution of glutaraldehyde and stained with a staining fluid (0.05 w/v % crystal violet in 20% methanol). After an extract (0.1 N NaH2PO4: 100% ethanol=1:1) was added and stirred, an absorbance at 540 nm was measured to obtain a cell count. The cell viability was calculated in accordance with the following equation and statistically processed in accordance with a Student's t-test.
T: Absorbance of a well exposed to radiation or containing a compound
C: Absorbance of a well neither exposed to radiation nor containing a compound

[4] = system: human brain tumor cell line (U-87 MG); assay: Combinational effect of compound and temozolomide (TMZ), cell viability (crystal violet); format: cell-based; conditions: any order (same-day, compound first, TMZ first), Student's t-test
Method: A human brain tumor cell line (U-87 MG) was suspended in a medium, seeded in individual wells of a multi-well plate and cultured. In the case where two compounds are simultaneously added, both compounds were added on two days after initiation of culture. In the case where addition of the compound of the present invention preceded, a serially diluted solution of the compound was added on the day after initiation of culture and a serially diluted solution of TMZ was added two days after initiation of culture. In the case where addition of TMZ preceded, a serially diluted solution of TMZ was added on the day after initiation of culture and a serially diluted solution of the compound was added on two days after initiation of culture. Day 5 after seeding, cells were fixed with a 25% aqueous solution of glutaraldehyde and stained with a staining fluid (0.05 w/v % crystal violet in 20% methanol). After an extract (0.1 N NaH2PO4: 100% ethanol=1:1) was added and stirred, an absorbance at 540 nm was measured to obtain a cell count. The cell viability was calculated in accordance with the following equation and statistically processed in accordance with a Student's t-test.
T: Absorbance of a well containing TMZ or a compound
C: Absorbance of a well containing neither TMZ nor a compound

AUC(0-t) [1]: 0.21 µM·h
IC50 (A172): 30 nM
IC50 (CCRFCEM): 40 nM
IC50 (CFPAC1): 50 nM
IC50 (DLD1): 40 nM
IC50 (H1703): 40 nM
IC50 (H69): 60 nM
IC50 (HCT116): 90 nM
IC50 (HT29): 130 nM
IC50 (LN229): 20 nM
IC50 (MIAPACA2): 40 nM
IC50 (MKN45): 130 nM
IC50 (MOLT4): 10 nM
IC50 (MV-4-11): 4 nM
IC50 (A427): 98 nM
IC50 (H520): 29 nM
SMILES: Nc1ncnc2c1c(I)cn2[C@@H]1O[C@H](CO)[C@@H](O)[C@@H]1F [Comparative Example 2, (2R,3R,4S,5R)-5-(4-amino-5-iodo-7H-pyrrolo[2,3-d]pyrimidin-7-yl)-4-fluoro-2-(hydroxymethyl) tetrahydrofuran-3-ol]
final day of evaluation (administration continued as long as weight loss was acceptable, until 20% or more) [2]: 6 days
cell viability, combination treatment with radiation exposure compared to the single treatments [3]: cell viability significantly decreased
cell viability, combination treatment with TMZ compared to the single treatments [4]: significant decrease in cell viability
